The values below come from PMC10983001, “Development of Cytotoxic GW7604-Zeise’s Salt Conjugates as Multitarget Compounds with Selectivity for Estrogen Receptor- Positive Tumor Cells” (Journal of Medicinal Chemistry, 2024).

Where two headings read alike, the source gives them in different places.

Holding throughout (assay type): cell-based, human
Data set [1] concerns MCF-7 cells. In words: MTT assay of metabolic activity, MCF-7. Particulars: 72 h, MTT, read-out: IC50 MCF-7. The procedure: (§1) The GW7604-Alk-PtCl3 complexes (with exclusion of GW7604-Prop-PtCl3) were investigated for cytotoxic effects in SKBr3 (ER-negative, COX-2-positive, Figure 6), MCF-7 (ERα-positive, COX-negative, Figure 6), and noncancerous TSA-201 (human embryonal kidney) cells at concentrations of 10–30 μM using an established MTT (3-(4,5-dimethylthiazol-2-yl)-2,5-diphenyltetrazolium bromide) assay.[60],[69]
(§2) After incubation for 72 h, the amounts of surviving, metabolically active cells were quantified based on their ability to transform the water-soluble yellow dye MTT to a purple formazan, which can be analyzed by UV–vis spectroscopy.
(§3) The exponentially growing cells were seeded at a density of 1750 (MCF-7), 2000 (SKBr3), and 1250 (TSA-201) cells/well into clear flat-bottom 96-well plates in triplicate. Following 24 h of incubation at 37 °C in a humidified atmosphere (5% CO2/95% air), the compounds [freshly prepared stock solutions in DMF, diluted with DMEM to the desired concentration (final DMF concentration of 0.1% (v/v))] were added to reach the indicated concentrations. After another 72 h of incubation, the cellular metabolic activity was measured employing an MTT assay. By adding predissolved MTT reagent in PBS at a final concentration of 0.5 mg/mL, the metabolic activity can be determined via an enzymatic conversion to a purple formazan salt. After 3 h, the medium was aspirated, and 200 μL of DMSO was added to dissolve the formed formazan crystals. The absorbance was measured at 570 and 690 nm (turbidity assessment) using an EnSpire plate reader (PerkinElmer, Waltham, MA, USA). Solvent-treated cells without a compound served as the positive control. Metabolic activity was calculated by the following equation [drawing 1]
A general note: Tetrazolium assays rely on reduction of a dye to a coloured formazan, in cell work by metabolically active cells.

A further data set deals with TSA-201 cells. As to the kind of experiment: MTT assay of metabolic activity, noncancerous TSA-201. Conditions: 72 h. As to the method:
as §1, §2, §3

The subject of data set [2] is SKBr3 cells. As to the kind of experiment: MTT assay of metabolic activity, SKBr3. Conditions: 72 h. As to the method:
as §1, §2, §3

Data set [3] deals with SKBr3 cells. In words: Cellular uptake (platinum by HR-CS-AAS), SKBr3. Particulars: 8 h. The procedure:
(§4) In order to reach the DNA, the complexes must first pass through the cell membrane and penetrate into the nuclei. Therefore, the cellular uptake kinetics of GW7604-Alk-PtCl3 complexes were studied using the example of GW7604-Pent-PtCl3. This complex and Cisplatin, respectively, were incubated at a concentration of 20 μM with MCF-7 or SKBr3 cells. After various time points [i.e., 0 (3 min), 0.5, 1, 2, 4, and 8 h], cell pellets were prepared, and the platinum content was quantified by high-resolution continuum source atomic absorption spectrometry (HR-CS-AAS).[52]
After thawing of the cell/nuclei pellets, they were resuspended in ultrapure water (Siemens LaboStar, Günzburg, Germany; 300 μL) and lyzed with a sonotrode (Bandelin Sonoplus, Berlin, Germany; parameters 20 s, 9 cycles, 80% power). Graphite furnace (GF) AAS was used to quantify the lysates concerning their content of platinum (λ = 265.9450 nm). For this purpose, a contrAA 700 High-Resolution-Continous Source AAS (Analytik Jena, Jena, Germany) was employed, while atomization took place by electrothermal heating of graphite tubes with an inserted platform (Analytik Jena, Jena, Germany). A time–temperature program reported in the literature[25] was followed with minor adjustments. The liquid samples kept in 0.5 mL polystyrene vials (Gesellschaft für Analysentechnik, Salzwedel, Germany) were injected directly into the pyrolytically coated tubes using an MPE 60 autosampler (Analytik Jena, Jena, Germany). Throughout the measurements, argon (Alphagaz 1, 99.999%, Air Liquide, Düsseldorf, Germany) served as the purge and protective gas. The spectrometer was monitored with the ASpect CS software, version 2.3.1.0 (Analytik Jena, Jena, Germany). For all runs, the mean integrated absorbance was determined after three injections of each standard or sample. Calibration was performed by an appropriate dilution of a solution of Cisplatin (Sigma-Aldrich, Taufkirchen, Germany) obtaining five standards (2–10 μg/L, R^2 ≥ 0.982). Each cell/nuclei lysate was quantified concerning its protein content following the method of Bradford[71] in order to express the uptake as the amount of compound (pmol) in the lysate relative to its protein mass (mg). Therefore, solutions of Albumin fraction V (Carl Roth, Karlsruhe, Germany) diluted with ultrapure water were adduced for the calibration (six standards, 50–300 μg/mL, R^2 ≥ 0.996). […] All standards and lysates were measured in duplicate. After incubating for 5 min at rt, the absorbance (λ = 595 nm) was read on a microplate reader (Tecan Safire 2, Männedorf, Switzerland). […]

For data set [4], the system named is MCF-7 cells. In words: Cellular uptake (platinum by HR-CS-AAS), MCF-7. Particulars: MCF-7, 20 μM, 8 h. As to the method: as §4
After thawing of the cell/nuclei pellets, they were resuspended in ultrapure water (Siemens LaboStar, Günzburg, Germany; 300 μL) and lyzed with a sonotrode (Bandelin Sonoplus, Berlin, Germany; parameters 20 s, 9 cycles, 80% power). Graphite furnace (GF) AAS was used to quantify the lysates concerning their content of platinum (λ = 265.9450 nm). For this purpose, a contrAA 700 High-Resolution-Continous Source AAS (Analytik Jena, Jena, Germany) was employed, while atomization took place by electrothermal heating of graphite tubes with an inserted platform (Analytik Jena, Jena, Germany). A time–temperature program reported in the literature[25] was followed with minor adjustments. The liquid samples kept in 0.5 mL polystyrene vials (Gesellschaft für Analysentechnik, Salzwedel, Germany) were injected directly into the pyrolytically coated tubes using an MPE 60 autosampler (Analytik Jena, Jena, Germany). Throughout the measurements, argon (Alphagaz 1, 99.999%, Air Liquide, Düsseldorf, Germany) served as the purge and protective gas. The spectrometer was monitored with the ASpect CS software, version 2.3.1.0 (Analytik Jena, Jena, Germany). For all runs, the mean integrated absorbance was determined after three injections of each standard or sample. Calibration was performed by an appropriate dilution of a solution of Cisplatin (Sigma-Aldrich, Taufkirchen, Germany) obtaining five standards (2–10 μg/L, R^2 ≥ 0.982). Each cell/nuclei lysate was quantified concerning its protein content following the method of Bradford[71] in order to express the uptake as the amount of compound (pmol) in the lysate relative to its protein mass (mg). Therefore, solutions of Albumin fraction V (Carl Roth, Karlsruhe, Germany) diluted with ultrapure water were adduced for the calibration (six standards, 50–300 μg/mL, R^2 ≥ 0.996). A volume of 20 μL of the Albumin standards or the lysates was added to a 96-well plate (Sarstedt, Nürmbrecht, Germany) and supplemented with 200 μL of Bradford’s reagent (Roti-Nanoquant, Carl Roth, Karlsruhe, Germany; diluted 5-fold with ultrapure water). All standards and lysates were measured in duplicate. After incubating for 5 min at rt, the absorbance (λ = 595 nm) was read on a microplate reader (Tecan Safire 2, Männedorf, Switzerland). The cellular/nuclear uptake (pmol complex/mg protein) is given as the mean ± SD of 2 independent experiments.
For cellular uptake studies, 1.0 × 10^6 of MCF-7 and SKBr3 cells in their exponential growing phase were seeded into 25 cm^2 cell culture flasks and incubated for 24 h under a humidified atmosphere (5% CO2/95% air) at 37 °C. Stock solutions of the platinum complexes (GW7604-Pent-PtCl3, Cisplatin) in DMF were freshly prepared and diluted with complete DMEM containing 10% FCS to the desired concentration [final DMF concentration of 0.1% (v/v), final complex concentration of 20 μM]. The medium in the cell culture flasks was replaced with 3 mL of fresh cell culture medium containing the compounds, and the flasks were incubated under a humidified atmosphere at 37 °C for 3 min, 0.5, 1, 2, 4, and 8 h. Cell pellets were prepared by removing the medium, washing two times with phosphate-buffered saline (PBS), and detaching the cells with Accutase (GE Healthcare, BioSciences, Chicago, IL, USA). Subsequently, cells were pelleted by centrifugation (4 °C, 380g, 3 min). […]

For a further data set, the system named is nuclei of MCF-7 cells. As to the kind of experiment: Nuclear uptake (platinum by HR-CS-AAS), MCF-7. Conditions: MCF-7, 20 μM, 24 h; pmol complex/mg protein. As to the method: (§5) Fluorescence in the nuclei is not detectable. Therefore, the nuclei were analyzed for their platinum content using HR-CS-AAS.[25]
(§6) After thawing of the cell/nuclei pellets, they were resuspended in ultrapure water (Siemens LaboStar, Günzburg, Germany; 300 μL) and lyzed with a sonotrode (Bandelin Sonoplus, Berlin, Germany; parameters 20 s, 9 cycles, 80% power). Graphite furnace (GF) AAS was used to quantify the lysates concerning their content of platinum (λ = 265.9450 nm). For this purpose, a contrAA 700 High-Resolution-Continous Source AAS (Analytik Jena, Jena, Germany) was employed, while atomization took place by electrothermal heating of graphite tubes with an inserted platform (Analytik Jena, Jena, Germany). […] The spectrometer was monitored with the ASpect CS software, version 2.3.1.0 (Analytik Jena, Jena, Germany). For all runs, the mean integrated absorbance was determined after three injections of each standard or sample. […] Each cell/nuclei lysate was quantified concerning its protein content following the method of Bradford[71] in order to express the uptake as the amount of compound (pmol) in the lysate relative to its protein mass (mg). […] All standards and lysates were measured in duplicate. After incubating for 5 min at rt, the absorbance (λ = 595 nm) was read on a microplate reader (Tecan Safire 2, Männedorf, Switzerland). […]

Data set [5] deals with MCF-7 cells. In words: Comet assay. Conditions: MCF-7, 15 μM, 48 h. The procedure:
The comet assay (Figure 10), however, documents different consequences of DNA binding. […] The picture (Figure 10C) is very similar to that of the solvent control (Figure 10A).
MCF-7 cells were seeded at a density of 1.0 × 10^6 cells into a 25 cm^2 flask, followed by 24 h of incubation in a humidified atmosphere (5% CO2/95% air) at 37 °C. […] Cells were incubated with the compounds for 48 h. The assay was performed according to the manufacturer’s protocol (Comet assay kit, Abcam, Cambridge, UK). Briefly, after lysis and application to the microscopy slides, electrophoresis was run in an alkaline buffer for 20 min at 2 V/cm. Subsequently, slides were washed with pure deionized water and EtOH/water [7/3 (v/v)], and stained with Vista Green DNA Dye. Visualization was carried out by real-time live confocal microscopy using an inverted microscope (Zeiss Observer Z1) in arrangement with a spinning disc confocal system (UltraVIEW VoX).

The test system of the next data set is nuclei of SKBr3 cells. In words: Nuclear uptake (platinum by HR-CS-AAS), SKBr3. Conditions: SKBr3, 20 μM, 24 h. As to the method:
as §5, §6

Broadly, the IC50 is the midpoint of a concentration-inhibition curve. Regarding `C=CCOC(=O)/C=C/c1ccc(C(=C(CC)c2ccccc2)c2ccc(O)cc2)cc1` (mixture of isomers) [GW7604-Prop, Prop-2-en-1-yl (E)-3-(4-((E/Z)-1-(4-hydroxyphenyl)-2-phenylbut-1-en-1-yl)phenyl) Acrylate], the IC50 in the data set on MCF-7 cells [1] (Homo sapiens, MCF7) lay in the range of 20 to 30 µM.

Regarding “Potassium trichlorido[η^2-(but-3-en-1-yl (E)-3-(4-((E/Z)-1-(4-hydroxyphenyl)-2-phenylbut-1-en-1-yl)phenyl)acrylate)]platinate(II) [GW7604-But-PtCl3]”, the IC50 in the data set on TSA-201 cells (MTT, read-out: IC50 TSA-210) is greater than 30 µM; in the data set on MCF-7 cells [1], 20.4 µM; in the data set on SKBr3 cells [2] (MTT) it was greater than 30 µM. Besides, in the data set on TSA-201 cells (TSA-201, 30 μM), the “decrease of cell viability” value is listed as “about 20%”.

Turning to `N.N.[Cl][Pt][Cl]` [Cisplatin, cis-diamminedichloridoplatinum(II), reference compound], the “accumulation in SKBr3 relative to MCF-7 cells” value with SKBr3 cells [3] (20 μM) is given as 15 fold. Moreover, the intracellular platinum amount in the data set on SKBr3 cells [3] (SKBr3, 20 μM) stood at 995 pmol/mg; in the data set with MCF-7 cells [4], 319 pmol/mg. Moreover, the 50% inhibitory concentration (IC50) in the data set with MCF-7 cells [1] is 15 µM. Further, the figures for the “platinum content in the nuclei” value in the data set with nuclei of MCF-7 cells and in the data set with nuclei of SKBr3 cells were 172 pmol/mg and 652 pmol/mg, respectively. Also, in the data set with MCF-7 cells [5], the “comet tails (DNA cross-links)” value is recorded as “visible as comet tails”. Moreover, the “reduction of metabolic activity” value with SKBr3 cells [2] (SKBr3, 20 μM) came out at 88%.

Turning to `C=CCCCCOC(=O)/C=C/c1ccc(C(=C(CC)c2ccccc2)c2ccc(O)cc2)cc1` (mixture of isomers) [GW7604-Hex, Hex-5-en-1-yl (E)-3-(4-((E/Z)-1-(4-hydroxyphenyl)-2-phenylbut-1-en-1-yl)phenyl) Acrylate], the IC50 in the data set on MCF-7 cells [1] (Homo sapiens, MCF7) was greater than 30 µM.
